Values of other authors as cited in patent US20080318335A1, “Transgenic Plant for Detecting Environmental Chemicals” (priority 2005, published 2008).

Tested on: GUS gene
Details: tobacco including AhR vector; 5 nM 20-methylcholanthrene

**Q.** For 20-methylcholanthrene, which GUS gene expression is on record?
**A.** expressed
